In US11298333B1, “Methods of reducing the risk of cardiovascular events in a subject” (Amarin Pharmaceuticals Ireland Limited, priority 2018, dated 2022):

Experiments:
[1] = system: hypertriglyceridemic patients with cardiovascular disease or at high risk for cardiovascular disease; assay: REDUCE-IT: safety, treatment-emergent adverse events (incl. bleeding and gastrointestinal TEAEs)
Description: (§1) Specification of Variables and Procedures: Safety assessments included adverse events, clinical laboratory measurements (chemistry, hematology), 12-lead ECGs, vital signs (systolic and diastolic blood pressure, heart rate, respiratory rate, and body temperature), weight, waist circumference, and physical examinations as per Study Procedures in Table 1. […] All laboratory test results were evaluated by the investigator as to their clinical significance. Any observations at physical examinations or laboratory values considered by the investigator to be clinically significant were considered an adverse event.
(§2) An adverse event can therefore be any unfavorable and/or unintended sign (including an abnormal laboratory finding), symptom, or disease temporally associated with the use of an investigational medication product, whether or not related to the investigational medication product. All adverse events, including observed or volunteered problems, complaints, or symptoms, were recorded on the appropriate CRF. Each adverse event was evaluated for duration, intensity, and causal relationship with the study medication or other factors.
(§3) Serious Adverse Events: A serious adverse event (SAE) is defined as an adverse event that meets any of the following criteria: • Results in death; • Is life-threatening—The term “life-threatening” in the definition of “serious” refers to an event in which the patient was at risk of death at the time of the event. […] Important medical events that may not result in death, be life threatening, or require hospitalization were considered an SAE when, based upon appropriate medical judgment, they may have jeopardized the patient and may have required medical or surgical intervention to prevent one of the outcomes listed above.
(§4) Adverse Events of Special Interest: Bleeding-related adverse events, glucose control (fasting blood glucose and HbA1c), and indicators of hepatic disorders (e.g., ALT or AST increases >3×ULN, total bilirubin increases of ≥2×ULN) were summarized separately and compared between treatment groups.
(§5) Analysis of Safety: All analyses of safety were conducted on the safety population, which was defined as all randomized patients. The safety assessment was based on the frequency of adverse events, physical exams, vital signs and safety laboratory tests. AEs with new onset during the study between the initiation of study drug and 30 days after the last dose of study drug for each patient was considered treatment-emergent (TEAEs). This included any AE with onset prior to initiation of study drug and increased severity after the treatment initiation.
(§6) This included overall incidence rates (regardless of severity and relationship to study drug), and incidence rates for moderate or severe adverse events. A summary of SAEs and adverse events leading to early discontinuation (for ≥30 days) were presented through data listings. Patients who restarted study drug were included in the summary of AEs leading to discontinuation. Safety laboratory tests and vital signs were summarized by post-treatment change from baseline for each of the parameters using descriptive statistics by treatment group. Those patients with significant laboratory abnormalities were identified in data listings. Additional safety parameters were summarized in data listings.

[2] = system: hypertriglyceridemic patients with cardiovascular disease or at high risk for cardiovascular disease; conditions: in vivo
Description: as §1, §2, §3, §4, §5, §6

[3] = gastrointestinal TEAE, Safety population N = 4089
[4] = gastrointestinal TEAE, number of patients, Safety population N = 4089
[5] = most frequent TEAEs (≥5%), N = 4089
[6] = no significant increase vs placebo
[7] = serious bleeding TEAE by preferred term, N = 4089
[8] = serious bleeding TEAE by preferred term, number of patients, N = 4089
[9] = serious bleeding TEAE, N = 4089
[10] = serious bleeding TEAE, number of patients, N = 4089
[11] = significantly higher than placebo

SMILES: CC/C=C\C/C=C\C/C=C\C/C=C\C/C=C\CCCC(=O)OCC [Icosapent Ethyl, eicosapentaenoic acid ethyl ester]
- Overall adverse event rates compared with placebo ([1]; 4 grams daily): similar
- Positively Adjudicated Atrial Fibrillation/Flutter (hospitalization) ([1]; N = 4089): 127 (3.1%) n (%)
- Serious TEAE (≥2%) Pneumonia ([1]; N = 4089): 105 (2.6%) n (%)
- Serious TEAE ([1]; Safety population N = 4089): 1252 (30.6%) n (%)
- Serious TEAE Leading to Death ([1]; Safety population N = 4089): 94 (2.3%) n (%)
- Serious TEAE Leading to Withdrawal of Study Drug ([1]; Safety population N = 4089): 88 (2.2%) n (%)
- Serious bleeding TEAE: Bleeding related disorders ([1]; Safety population N = 4089): 111 (2.7%) n (%)
- Serious bleeding TEAE: Central nervous system bleeding ([1]; Safety population N = 4089): 14 (0.3%) n (%)
- Serious bleeding TEAE: Gastrointestinal bleeding ([1]; Safety population N = 4089): 62 (1.5%) n (%)
- Serious bleeding TEAE: Other bleeding ([1]; Safety population N = 4089): 41 (1.0%) n (%)
- Subjects with at Least One TEAE ([1]; Safety population N = 4089): 3343 (81.8%) n (%)
- TEAE Leading to Withdrawal of Study Drug ([1]; Safety population N = 4089): 321 (7.9%) n (%)
- Constipation (TEAE), percentage of patients [1, 3]: (5.4%)
- Diarrhea (TEAE), percentage of patients [1, 3]: (9.0%)
- Gastroesophageal Reflux Disease (TEAE), percentage of patients [1, 3]: (3.0%)
- Gastrointestinal disorders (TEAE), percentage of patients [1, 3]: (33.0%)
- Nausea (TEAE), percentage of patients [1, 3]: (4.6%)
- Constipation (TEAE), patients [1, 4]: 221
- Diarrhea (TEAE), patients [1, 4]: 367
- Gastroesophageal Reflux Disease (TEAE), patients [1, 4]: 124
- Gastrointestinal disorders (TEAE), patients [1, 4]: 1350
- Nausea (TEAE), patients [1, 4]: 190
- Treatment-emergent serious adverse events for bleeding, rate ([1]; in vivo): 2.7%
- Rate of anemia (adverse event) ([1]; lower than placebo): 4.7%
- Rate of diarrhea (adverse event) ([1]; lower than placebo): 9%
- Rate of gastrointestinal adverse events ([1]; lower than placebo): 33.0%
- TEAE Anemia [1, 5]: 191 (4.7%) n (%)
- TEAE Angina pectoris [1, 5]: 200 (4.9%) n (%)
- TEAE Arthralgia [1, 5]: 313 (7.7%) n (%)
- TEAE Atrial fibrillation [1, 5]: 215 (5.3%) n (%)
- TEAE Back pain [1, 5]: 335 (8.2%) n (%)
- TEAE Bronchitis [1, 5]: 306 (7.5%) n (%)
- TEAE Cataract [1, 5]: 233 (5.7%) n (%)
- TEAE Chest pain [1, 5]: 273 (6.7%) n (%)
- TEAE Constipation [1, 5]: 221 (5.4%) n (%)
- TEAE Cough [1, 5]: 241 (5.9%) n (%)
- TEAE Diarrhea [1, 5]: 367 (9.0%) n (%)
- TEAE Dizziness [1, 5]: 235 (5.7%) n (%)
- TEAE Dyspnea [1, 5]: 254 (6.2%) n (%)
- TEAE Fatigue [1, 5]: 228 (5.6%) n (%)
- TEAE Hypertension [1, 5]: 320 (7.8%) n (%)
- TEAE Influenza [1, 5]: 263 (6.4%) n (%)
- TEAE Nasopharyngitis [1, 5]: 314 (7.7%) n (%)
- TEAE Osteoarthritis [1, 5]: 241 (5.9%) n (%)
- TEAE Pain in extremity [1, 5]: 235 (5.7%) n (%)
- TEAE Peripheral edema [1, 5]: 267 (6.5%) n (%)
- TEAE Pneumonia [1, 5]: 263 (6.4%) n (%)
- Tolerability ([1]; no significant difference in rates of serious adverse events versus placebo): well tolerated
- Serious central nervous system bleeding, rate [1, 6]: 0.3%
- Serious gastrointestinal bleeding, rate [1, 6]: 1.5%
- Serious adverse event pneumonia, rate ([1]; only serious adverse event at frequency ≥2%): 2.6%
- Aortic Aneurysm Rupture, percentage [1, 7]: (0.0%)
- Brain Contusion, percentage [1, 7]: (0.0%)
- Catheter Site Hemorrhage, percentage [1, 7]: (0.0%)
- Cerebral Hemorrhage, percentage [1, 7]: (0.0%)
- Cystitis Hemorrhagic, percentage [1, 7]: (0.0%)
- Diverticulitis Intestinal Hemorrhagic, percentage [1, 7]: (0.0%)
- Diverticulum Intestinal Hemorrhagic, percentage [1, 7]: (0.1%)
- Duodenal Ulcer Hemorrhage, percentage [1, 7]: (0.0%)
- Ecchymosis, percentage [1, 7]: (0.0%)
- Epistaxis, percentage [1, 7]: (0.2%)
- Esophageal Hemorrhage, percentage [1, 7]: (0.0%)
- Extravasation Blood, percentage [1, 7]: (0.0%)
- Gastric Hemorrhage, percentage [1, 7]: (0.0%)
- Gastric Ulcer Hemorrhage, percentage [1, 7]: (0.1%)
- Gastrointestinal Angiodysplasia Hemorrhagic, percentage [1, 7]: (0.0%)
- Gastrointestinal Hemorrhage, percentage [1, 7]: (0.6%)
- Genital Hemorrhage, percentage [1, 7]: (0.0%)
- Hemarthrosis, percentage [1, 7]: (0.0%)
- Hematemesis, percentage [1, 7]: (0.1%)
- Hematochezia, percentage [1, 7]: (0.0%)
- Hematoma, percentage [1, 7]: (0.0%)
- Hematuria, percentage [1, 7]: (0.2%)
- Hemoptysis, percentage [1, 7]: (0.0%)
- Hemorrhagic Anemia, percentage [1, 7]: (0.1%)
- Hemorrhagic Duodenitis, percentage [1, 7]: (0.0%)
- Hemorrhagic Transformation Stroke, percentage [1, 7]: (0.0%)
- Hemorrhoidal Hemorrhage, percentage [1, 7]: (0.1%)
- Hemothorax, percentage [1, 7]: (0.0%)
- Immune Thrombocytopenic Purpura, percentage [1, 7]: (0.0%)
- Intra-Abdominal Hemorrhage, percentage [1, 7]: (0.0%)
- Intracranial Hemorrhage, percentage [1, 7]: (0.0%)
- Large Intestinal Hemorrhage, percentage [1, 7]: (0.0%)
- Lower Gastrointestinal Hemorrhage, percentage [1, 7]: (0.1%)
- Mallory-Weiss Syndrome, percentage [1, 7]: (0.0%)
- Melaena, percentage [1, 7]: (0.1%)
- Menorrhagia, percentage [1, 7]: (0.0%)
- Mouth Hemorrhage, percentage [1, 7]: (0.0%)
- Pancreatitis Hemorrhagic, percentage [1, 7]: (0.0%)
- Peptic Ulcer Hemorrhage, percentage [1, 7]: (0.0%)
- Pericardial Hemorrhage, percentage [1, 7]: (0.0%)
- Post Procedural Hematoma, percentage [1, 7]: (0.0%)
- Post Procedural Hematuria, percentage [1, 7]: (0.0%)
- Post Procedural Hemorrhage, percentage [1, 7]: (0.1%)
- Rectal Hemorrhage, percentage [1, 7]: (0.2%)
- Renal Hemorrhage, percentage [1, 7]: (0.0%)
- Retinal Hemorrhage, percentage [1, 7]: (0.0%)
- Retroperitoneal Hematoma, percentage [1, 7]: (0.0%)
- Retroperitoneal Hemorrhage, percentage [1, 7]: (0.0%)
- Shock Hemorrhagic, percentage [1, 7]: (0.0%)
- Subarachnoid Hemorrhage, percentage [1, 7]: (0.0%)
- Subdural Hematoma, percentage [1, 7]: (0.2%)
- Subdural Hemorrhage, percentage [1, 7]: (0.0%)
- Traumatic Hematoma, percentage [1, 7]: (0.0%)
- Traumatic Intracranial Hemorrhage, percentage [1, 7]: (0.0%)
- Ulcer Hemorrhage, percentage [1, 7]: (0.0%)
- Upper Gastrointestinal Hemorrhage, percentage [1, 7]: (0.1%)
- Urinary Bladder Hemorrhage, percentage [1, 7]: (0.0%)
- Aortic Aneurysm Rupture, patients [1, 8]: 1
- Brain Contusion, patients [1, 8]: 0
- Catheter Site Hemorrhage, patients [1, 8]: 0
- Cerebral Hemorrhage, patients [1, 8]: 0
- Cystitis Hemorrhagic, patients [1, 8]: 2
- Diverticulitis Intestinal Hemorrhagic, patients [1, 8]: 0
- Diverticulum Intestinal Hemorrhagic, patients [1, 8]: 3
- Duodenal Ulcer Hemorrhage, patients [1, 8]: 2
- Ecchymosis, patients [1, 8]: 1
- Epistaxis, patients [1, 8]: 7
- Esophageal Hemorrhage, patients [1, 8]: 0
- Extravasation Blood, patients [1, 8]: 1
- Gastric Hemorrhage, patients [1, 8]: 1
- Gastric Ulcer Hemorrhage, patients [1, 8]: 3
- Gastrointestinal Angiodysplasia Hemorrhagic, patients [1, 8]: 1
- Gastrointestinal Hemorrhage, patients [1, 8]: 26
- Genital Hemorrhage, patients [1, 8]: 1
- Hemarthrosis, patients [1, 8]: 0
- Hematemesis, patients [1, 8]: 3
- Hematochezia, patients [1, 8]: 1
- Hematoma, patients [1, 8]: 1
- Hematuria, patients [1, 8]: 8
- Hemoptysis, patients [1, 8]: 1
- Hemorrhagic Anemia, patients [1, 8]: 4
- Hemorrhagic Duodenitis, patients [1, 8]: 0
- Hemorrhagic Transformation Stroke, patients [1, 8]: 1
- Hemorrhoidal Hemorrhage, patients [1, 8]: 3
- Hemothorax, patients [1, 8]: 1
- Immune Thrombocytopenic Purpura, patients [1, 8]: 0
- Intra-Abdominal Hemorrhage, patients [1, 8]: 1
- Intracranial Hemorrhage, patients [1, 8]: 0
- Large Intestinal Hemorrhage, patients [1, 8]: 1
- Lower Gastrointestinal Hemorrhage, patients [1, 8]: 5
- Mallory-Weiss Syndrome, patients [1, 8]: 1
- Melaena, patients [1, 8]: 3
- Menorrhagia, patients [1, 8]: 1
- Mouth Hemorrhage, patients [1, 8]: 0
- Pancreatitis Hemorrhagic, patients [1, 8]: 1
- Peptic Ulcer Hemorrhage, patients [1, 8]: 1
- Pericardial Hemorrhage, patients [1, 8]: 0
- Post Procedural Hematoma, patients [1, 8]: 1
- Post Procedural Hematuria, patients [1, 8]: 0
- Post Procedural Hemorrhage, patients [1, 8]: 5
- Rectal Hemorrhage, patients [1, 8]: 10
- Renal Hemorrhage, patients [1, 8]: 0
- Retinal Hemorrhage, patients [1, 8]: 1
- Retroperitoneal Hematoma, patients [1, 8]: 0
- Retroperitoneal Hemorrhage, patients [1, 8]: 1
- Shock Hemorrhagic, patients [1, 8]: 2
- Subarachnoid Hemorrhage, patients [1, 8]: 2
- Subdural Hematoma, patients [1, 8]: 9
- Subdural Hemorrhage, patients [1, 8]: 2
- Traumatic Hematoma, patients [1, 8]: 2
- Traumatic Intracranial Hemorrhage, patients [1, 8]: 0
- Ulcer Hemorrhage, patients [1, 8]: 1
- Upper Gastrointestinal Hemorrhage, patients [1, 8]: 3
- Urinary Bladder Hemorrhage, patients [1, 8]: 1
- Central Nervous System Bleeding (category), percentage [1, 9]: (0.3%)
- Gastrointestinal Bleeding (category), percentage [1, 9]: (1.5%)
- Other Bleeding (category), percentage [1, 9]: (1.0%)
- Patients with Bleeding-Related Disorders, percentage [1, 9]: (2.7%)
- Central Nervous System Bleeding (category), patients [1, 10]: 14
- Gastrointestinal Bleeding (category), patients [1, 10]: 62
- Other Bleeding (category), patients [1, 10]: 41
- Patients with Bleeding-Related Disorders, patients [1, 10]: 111
- Rate of atrial fibrillation (adverse event) [1, 11]: 5.3%
- Rate of peripheral edema (adverse event) [1, 11]: 6.5%
- TEAE Upper respiratory tract infection ([2]; human): 312 (7.6%) n (%)
- TEAE Urinary tract infection ([2]; human): 253 (6.2%) n (%)
- Fatal bleeding events [2]: no fatal bleeding events
